Assay results from PMC6934184, “Selective DNA-PKcs inhibition extends the therapeutic index of localized radiotherapy and chemotherapy” (The Journal of Clinical Investigation, 2019).

Target: T1, EGFR (ErbB1) L858R (Homo sapiens, UniProt P00533, L858R)
T1 construct: purchased Thermo Fisher Scientific (Life Technologies) SelectScreen
Assay: SelectScreen Z'LYTE
Type: biochemical
How it was run: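 NU5455 was profiled across the SelectScreen Broad panel of kinase activity and binding assays. Z'LYTE reactions such as CSF1R ran at apparent Km ATP, while the Adapta CAMK1 assay used ATP listed as 10. Values are given as percent.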

T1 sequence (P00533 25-1210 L858R): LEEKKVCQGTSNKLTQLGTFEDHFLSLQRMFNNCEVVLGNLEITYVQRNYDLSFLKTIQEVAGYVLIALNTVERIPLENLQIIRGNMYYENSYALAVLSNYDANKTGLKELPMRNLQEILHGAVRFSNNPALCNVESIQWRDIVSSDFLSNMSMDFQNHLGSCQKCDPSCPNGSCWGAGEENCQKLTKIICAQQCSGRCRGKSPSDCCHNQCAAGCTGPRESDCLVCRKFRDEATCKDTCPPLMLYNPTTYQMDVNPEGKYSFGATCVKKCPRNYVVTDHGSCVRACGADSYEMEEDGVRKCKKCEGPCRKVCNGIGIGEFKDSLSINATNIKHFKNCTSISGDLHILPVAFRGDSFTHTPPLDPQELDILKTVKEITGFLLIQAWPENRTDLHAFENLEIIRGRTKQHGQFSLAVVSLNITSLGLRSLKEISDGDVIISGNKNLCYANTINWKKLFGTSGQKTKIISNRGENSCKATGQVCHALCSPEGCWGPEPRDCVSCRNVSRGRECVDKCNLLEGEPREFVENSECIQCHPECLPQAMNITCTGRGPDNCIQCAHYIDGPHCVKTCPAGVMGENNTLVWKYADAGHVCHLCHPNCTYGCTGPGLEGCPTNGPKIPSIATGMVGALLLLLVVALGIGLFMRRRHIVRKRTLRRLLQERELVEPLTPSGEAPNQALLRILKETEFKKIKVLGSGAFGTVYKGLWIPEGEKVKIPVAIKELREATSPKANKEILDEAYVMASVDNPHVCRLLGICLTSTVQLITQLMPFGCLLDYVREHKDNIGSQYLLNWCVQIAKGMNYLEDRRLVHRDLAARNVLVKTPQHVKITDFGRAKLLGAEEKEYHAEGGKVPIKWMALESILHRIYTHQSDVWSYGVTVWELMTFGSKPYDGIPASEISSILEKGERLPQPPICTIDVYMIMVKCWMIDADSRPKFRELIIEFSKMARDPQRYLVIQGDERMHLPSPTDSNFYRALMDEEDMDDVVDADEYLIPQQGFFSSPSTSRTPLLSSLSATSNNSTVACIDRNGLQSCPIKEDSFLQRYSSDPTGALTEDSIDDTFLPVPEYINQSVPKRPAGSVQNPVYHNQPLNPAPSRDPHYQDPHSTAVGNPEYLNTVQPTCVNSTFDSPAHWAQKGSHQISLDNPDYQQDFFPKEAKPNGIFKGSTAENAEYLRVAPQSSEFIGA

With CN(C(=O)CN1CCOCC1)c1ccc2sc3c(-c4cccc5c(=O)cc(N6CC7CCC(C6)O7)oc45)cccc3c2c1 [NU5455] as the compound, how does the inhibition at 1 µM read?
Its inhibition at 1 µM is -15%.
